Calls of active or inactive are those of the source. The rule behind the calls is not given here.
Experiments:
[1] = test system: U-87 MG; settings: Homo sapiens; U-87MG ATCC
Description: Inhibition of carbonic anhydrase 9 mRNA expression in human U87MG cells under hypoxic conditions at 5000 nM treated prior to hypoxic-challenge followed by compound addition 12 hrs after first treatment by RT-PCR analysis

[2] = test system: U-373MG ATCC; settings: Homo sapiens
Description: Inhibition of carbonic anhydrase 9 mRNA expression in human U373 cells under hypoxic conditions at 4500 nM treated prior to hypoxic-challenge followed by compound addition 12 hrs after first treatment by RT-PCR analysis

[3] = Inhibition of carbonic anhydrase 9 protein expression in human U373 cells under hypoxic conditions at 500 nM treated prior to hypoxic-challenge by Western blotting analysis; format: functional, cell-based; settings: U-373MG ATCC
[4] = test system: U-251; test: Inhibition of carbonic anhydrase 9 protein expression in human U251 cells under hypoxic conditions at 500 nM treated prior to hypoxic-challenge by Western blotting analysis; format: functional, cell-based
[5] = Inhibition of carbonic anhydrase 9 protein expression in human U87MG cells under hypoxic conditions at 500 nM treated prior to hypoxic-challenge by Western blotting analysis; format: functional, cell-based; settings: U-87MG ATCC
[6] = test system: GAMG; test: Inhibition of carbonic anhydrase 9 protein expression in human GaMG cells under hypoxic conditions at 500 nM treated prior to hypoxic-challenge by Western blotting analysis; format: functional, cell-based
[7] = test system: U-87 MG; test: Inhibition of carbonic anhydrase 9 mRNA expression in human U87MG cells under hypoxic conditions at 500 nM treated prior to hypoxic-challenge by RT-PCR analysis; format: functional, cell-based; settings: U-87MG ATCC
[8] = test system: GAMG; test: Inhibition of carbonic anhydrase 9 mRNA expression in human GaMG cells under hypoxic conditions at 400 nM treated prior to hypoxic-challenge by RT-PCR analysis; format: functional, cell-based
[9] = test system: U-251; test: Inhibition of carbonic anhydrase 9 mRNA expression in human U251 cells under hypoxic conditions at 500 nM treated prior to hypoxic-challenge by RT-PCR analysis; format: functional, cell-based
[10] = test system: U-373MG ATCC; test: Inhibition of carbonic anhydrase 9 mRNA expression in human U373 cells under hypoxic conditions at 500 nM treated prior to hypoxic-challenge by RT-PCR analysis; format: functional, cell-based

For `CC(=O)Nc1nnc(S(N)(=O)=O)s1`, which inhibition [1] is on record?
Its inhibition is “Active”.

What about the inhibition [2] of the same molecule?
The inhibition was “Active”.

Which inhibition [3] does the source give for `CN1C(=O)[C@]2(Cc3cn([C@]45C[C@@]67SS[C@@](CO)(C(=O)N6[C@H]4Nc4ccccc45)N(C)C7=O)c4ccccc34)SS[C@@]1(CO)C(=O)N2C` here?
Its inhibition is “inactive”.

And the inhibition [4]?
Its inhibition is “inactive”.

And the inhibition [5]?
Its inhibition is “inactive”.

What about the inhibition [6] of the same molecule?
Its inhibition is “Active”.

And the inhibition [7]?
The inhibition was “Active”.

And the inhibition [8]?
The inhibition was “Active”.

And the inhibition [9]?
The inhibition was “Active”.

And the inhibition [10]?
The inhibition was “Active”.
